In patent US10414811B2, “Protease-resistant lipidated GLP-1 analogs” (MEDIMMUNE LIMITED, priority 2015, dated 2019):
Where two headings read alike, the source gives them in different places. Numbered stars: 1 amine (or outer) side, 2 acyl side, 3 side chain; on linkers, the order of the positions; unused ones are H or OH. Square brackets hold non-standard residues; d marks the D form. Side chains are listed from the residue outwards. Peptide text beside a SMILES is read from it. * marks the point of attachment. C18 diacid = O=C(O)CCCCCCCCCCCCCCCCC(=O)*; γGlu = O=C(O)[C@H](CCC(=O)[*:2])N[*:1]; Palmitoyl = CCCCCCCCCCCCCCCC(=O)*; αMeF = C[C@](N)(Cc1ccccc1)C(=O)O; Myristoyl = CCCCCCCCCCCCCC(=O)*; αMeK = C[C@](N)(CCCCN)C(=O)O; Lauroyl = CCCCCCCCCCCC(=O)*; αMeS = C[C@](N)(CO)C(=O)O; AEEA = NCCOCCOCC(=O)O; Aib = CC(C)(N)C(=O)O

Columns and labels:
Type in all cases: cell-based
[1] = target: T1, human glucagon receptor (GCGR) (Homo sapiens, UniProt P47871); assay: cAMP assay, human GCGR cells; conditions: cAMP assay
T1 construct: expressed in transfected cells
In short: (§1)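 Peptide-stimulated cAMP measured by two-step HTRF after a 30 min room-temperature incubation with receptor-expressing cells (hGLP-1R, hGIPR at 1×10^5 cells/ml; hGCGR at 2×10^5 cells/ml). Duplicate dilutions; EC50 from 4-parameter logistic fit of % Delta F.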

[2] = target: T2, human glucose-dependent insulinotropic peptide receptor (GIPR) (Homo sapiens, UniProt P48546); assay: cAMP assay, human GIPR cells; conditions: cAMP assay
T2 construct: expressed in transfected cells
T2 sequence (P48546 22-466): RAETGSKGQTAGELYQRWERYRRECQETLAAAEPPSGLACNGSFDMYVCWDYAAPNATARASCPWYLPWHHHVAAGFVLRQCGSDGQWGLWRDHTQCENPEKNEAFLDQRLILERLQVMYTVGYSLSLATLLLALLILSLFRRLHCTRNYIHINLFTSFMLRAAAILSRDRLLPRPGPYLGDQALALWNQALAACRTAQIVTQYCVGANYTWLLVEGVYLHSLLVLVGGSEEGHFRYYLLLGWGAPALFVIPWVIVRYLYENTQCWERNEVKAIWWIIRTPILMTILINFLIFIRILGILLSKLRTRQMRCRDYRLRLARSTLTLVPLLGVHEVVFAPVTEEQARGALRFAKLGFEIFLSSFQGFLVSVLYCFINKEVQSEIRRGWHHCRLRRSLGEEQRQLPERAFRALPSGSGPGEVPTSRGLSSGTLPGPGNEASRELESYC
In short: as §1

GLP-1R (INS1e assay) = target: T3, GLP-1R (INS1e assay) (Rattus norvegicus, UniProt P32301); assay: INS1e assay, cAMP activity at GLP-1R
T3 construct: endogenous in cells; host or cells: INS-1E cells
T3 sequence (P32301 22-463): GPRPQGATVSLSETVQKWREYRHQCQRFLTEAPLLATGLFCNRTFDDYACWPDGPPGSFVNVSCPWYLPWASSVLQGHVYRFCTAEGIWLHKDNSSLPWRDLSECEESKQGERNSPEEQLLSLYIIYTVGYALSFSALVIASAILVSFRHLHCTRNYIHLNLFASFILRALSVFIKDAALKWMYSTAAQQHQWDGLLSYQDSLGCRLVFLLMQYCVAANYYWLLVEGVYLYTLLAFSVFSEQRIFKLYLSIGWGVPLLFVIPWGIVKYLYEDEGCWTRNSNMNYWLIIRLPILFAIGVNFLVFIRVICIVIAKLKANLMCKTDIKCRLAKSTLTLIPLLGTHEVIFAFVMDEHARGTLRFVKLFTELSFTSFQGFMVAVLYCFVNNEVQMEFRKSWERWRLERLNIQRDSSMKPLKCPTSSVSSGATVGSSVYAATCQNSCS
Description: cAMP levels are measured using a commercially available cAMP dynamic 2 HTRF kit (Cisbio, Cat #62AM4PEJ), following the two step protocol as per manufacturer's recommendations. In brief; anti-cAMP cryptate (donor fluorophore) and cAMP-d2 (acceptor fluorophore) are made up separately by diluting each 1/20 in conjugate & lysis buffer provided in the kit. 5 μL anti-cAMP cryptate is added to wells of the assay plate, and 5 μL cAMP-d2 is added to wells except non-specific binding (NSB) wells, to which conjugate and lysis buffer are added. […] EC50 values of the synthetic peptides determined in cAMP assays are then determined.

[3] = target: T4, human GLP-1 receptor (GLP-1R) (Homo sapiens, UniProt P43220); assay: cAMP assay, human GLP-1R cells; conditions: bis-lipidated peptides
T4 construct: expressed in transfected cells
In short: as §1

[4] = first determination (n1), read-out: Primary assay EC50 Gluc-R (n1)
[5] = second determination (n2), read-out: Primary assay EC50 Gluc-R (n2)
[6] = first determination (n1), read-out: Primary assay EC50 GIP-R (n1)
[7] = second determination (n2), read-out: Primary assay EC50 GIP-R (n2)
[8] = mono-lipidated peptides, mean of n1 and n2, read-out: INS1e assay EC50 Mean pM GLP-1R
[9] = mono-lipidated peptides, replicate n1, read-out: INS1e assay EC50 GLP-1R n1
[10] = mono-lipidated peptides, replicate n2, read-out: INS1e assay EC50 GLP-1R n2
[11] = mean of n1 and n2, read-out: Primary assay EC50 Mean pM GLP-1R
[12] = replicate n1, read-out: Primary assay EC50 GLP-1R n1
[13] = replicate n2, read-out: Primary assay EC50 GLP-1R n2
[14] = bis-lipidated peptides, mean of n1 and n2, read-out: INS1e assay EC50 Mean pM GLP-1R
[15] = bis-lipidated peptides, replicate n1, read-out: INS1e assay EC50 GLP-1R n1
[16] = bis-lipidated peptides, replicate n2, read-out: INS1e assay EC50 GLP-1R n2

T1 sequence (P47871 26-477): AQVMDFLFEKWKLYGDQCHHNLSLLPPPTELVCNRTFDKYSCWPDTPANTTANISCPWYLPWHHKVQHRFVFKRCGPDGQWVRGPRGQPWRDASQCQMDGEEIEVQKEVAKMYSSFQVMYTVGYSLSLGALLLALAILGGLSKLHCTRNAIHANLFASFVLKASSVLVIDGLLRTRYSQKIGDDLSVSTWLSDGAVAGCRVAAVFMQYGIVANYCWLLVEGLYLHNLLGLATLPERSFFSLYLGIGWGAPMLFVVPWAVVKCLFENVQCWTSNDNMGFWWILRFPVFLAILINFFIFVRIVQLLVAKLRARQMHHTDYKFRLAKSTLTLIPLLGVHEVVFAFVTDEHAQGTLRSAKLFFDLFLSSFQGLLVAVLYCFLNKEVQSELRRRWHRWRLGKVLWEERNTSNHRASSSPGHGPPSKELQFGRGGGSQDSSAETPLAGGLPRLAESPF
T4 sequence (P43220 24-463): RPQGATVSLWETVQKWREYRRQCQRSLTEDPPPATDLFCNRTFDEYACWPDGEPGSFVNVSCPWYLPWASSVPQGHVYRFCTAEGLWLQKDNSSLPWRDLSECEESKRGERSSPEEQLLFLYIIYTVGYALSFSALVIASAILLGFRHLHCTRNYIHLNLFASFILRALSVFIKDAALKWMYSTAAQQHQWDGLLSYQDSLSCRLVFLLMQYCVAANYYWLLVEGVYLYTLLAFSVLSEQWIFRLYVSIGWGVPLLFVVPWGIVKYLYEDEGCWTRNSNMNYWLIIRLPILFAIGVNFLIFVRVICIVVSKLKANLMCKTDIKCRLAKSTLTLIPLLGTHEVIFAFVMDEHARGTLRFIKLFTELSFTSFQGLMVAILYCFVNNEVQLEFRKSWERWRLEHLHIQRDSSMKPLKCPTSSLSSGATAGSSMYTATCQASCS

Compound	EC50 [1, 4] [pM]	EC50 [1, 5] [pM]	EC50 [2, 6] [pM]	EC50 [2, 7] [pM]	EC50 (GLP-1R (INS1e assay); [8]) [pM]	EC50 (GLP-1R (INS1e assay); [9]) [pM]	EC50 (GLP-1R (INS1e assay); [10]) [pM]	EC50 [3, 11] [pM]	EC50 [3, 12] [pM]	EC50 [3, 13] [pM]	EC50 (GLP-1R (INS1e assay); [14]) [pM]	EC50 (GLP-1R (INS1e assay); [15]) [pM]	EC50 (GLP-1R (INS1e assay); [16]) [pM]
CC[C@H](C)[C@H](NC(=O)[C@](C)(Cc1ccccc1)NC(=O)[C@H](CCC(=O)O)NC(=O)[C@H](CCCCNC(=O)COCCOCCNC(=O)COCCOCCNC(=O)CC[C@H](NC(=O)CCCCCCCCCCCCCCC(=O)O)C(=O)O)NC(=O)[C@H](C)NC(=O)[C@H](C)NC(=O)[C@H](CCC(=O)O)NC(=O)CNC(=O)[C@H](CCC(=O)O)NC(=O)[C@H](CC(C)C)NC(=O)[C@](C)(Cc1ccccc1)NC(=O)[C@H](CO)NC(=O)[C@](C)(CO)NC(=O)[C@@H](NC(=O)[C@H](CC(=O)O)NC(=O)[C@H](CO)NC(=O)[C@@H](NC(=O)[C@](C)(Cc1ccccc1)NC(=O)[C@H](CO)NC(=O)CNC(=O)[C@H](CCC(=O)O)NC(=O)C(C)(C)NC(=O)[C@@H](N)Cc1c[nH]cn1)[C@@H](C)O)C(C)C)C(=O)N[C@@H](C)C(=O)N[C@@](C)(Cc1ccccc1)C(=O)N[C@H](C(=O)N[C@H](C(=O)N[C@@](C)(CCCCN)C(=O)NCC(=O)NCC(N)=O)C(C)C)C(C)C [compound 109]	≥ 26000	≥ 25600	≥ 26000	≥ 25600	6330	8350	4320	–	–	–	–	–	–
CCCCCCCCCCCCCCCC(=O)N[C@@H](CCC(=O)NCCCC[C@H](NC(=O)[C@H](CCC(=O)O)NC(=O)[C@H](CC(C)C)NC(=O)[C@](C)(Cc1ccccc1)NC(=O)[C@H](CO)NC(=O)[C@](C)(CO)NC(=O)[C@@H](NC(=O)[C@H](CC(=O)O)NC(=O)[C@H](CO)NC(=O)[C@@H](NC(=O)[C@](C)(Cc1ccccc1)NC(=O)[C@H](CO)NC(=O)CNC(=O)[C@H](CCC(=O)O)NC(=O)C(C)(C)NC(=O)[C@@H](N)Cc1c[nH]cn1)[C@@H](C)O)C(C)C)C(=O)N[C@@H](CCC(=O)O)C(=O)N[C@@H](C)C(=O)N[C@@H](C)C(=O)N[C@@](C)(CCCCN)C(=O)N[C@@H](CCC(=O)O)C(=O)N[C@@](C)(Cc1ccccc1)C(=O)N[C@H](C(=O)N[C@@H](C)C(=O)N[C@@](C)(Cc1ccccc1)C(=O)N[C@H](C(=O)N[C@H](C(=O)N[C@@](C)(CCCCN)C(=O)NCC(=O)NCC(N)=O)C(C)C)C(C)C)[C@@H](C)CC)C(=O)O [compound 84] (H-H[Aib]EGS[αMeF]TSDV[αMeS]S[αMeF]LEK([γGlu-Palmitoyl])EAA[αMeK]E[αMeF]IA[αMeF]VV[αMeK]GG-NH2)	≥ 27000	≥ 27000	≥ 27000	≥ 27000	560	455	665	–	–	–	–	–	–
CC[C@H](C)[C@H](NC(=O)[C@](C)(Cc1ccccc1)NC(=O)[C@H](CCC(=O)O)NC(=O)[C@](C)(CCCCN)NC(=O)[C@H](CCCCNC(=O)COCCOCCNC(=O)COCCOCCNC(=O)CC[C@H](NC(=O)CCCCCCCCCCCCCCCCC(=O)O)C(=O)O)NC(=O)[C@H](C)NC(=O)[C@H](CCC(=O)O)NC(=O)CNC(=O)[C@H](CCC(=O)O)NC(=O)[C@H](CC(C)C)NC(=O)[C@](C)(Cc1ccccc1)NC(=O)[C@H](CO)NC(=O)[C@](C)(CO)NC(=O)[C@@H](NC(=O)[C@H](CC(=O)O)NC(=O)[C@H](CO)NC(=O)[C@@H](NC(=O)[C@](C)(Cc1ccccc1)NC(=O)[C@H](CO)NC(=O)CNC(=O)[C@H](CCC(=O)O)NC(=O)C(C)(C)NC(=O)[C@@H](N)Cc1c[nH]cn1)[C@@H](C)O)C(C)C)C(=O)N[C@@H](C)C(=O)N[C@@](C)(Cc1ccccc1)C(=O)N[C@H](C(=O)N[C@H](C(=O)N[C@@](C)(CCCCN)C(=O)NCC(=O)NCC(N)=O)C(C)C)C(C)C [compound 110] (H-H[Aib]EGS[αMeF]TSDV[αMeS]S[αMeF]LEGEAK([AEEA-AEEA-γGlu-C18 diacid])[αMeK]E[αMeF]IA[αMeF]VV[αMeK]GG-NH2; N-terminus assumed)	≥ 25000	≥ 25000	≥ 25000	≥ 25000	27400	31600	23100	–	–	–	–	–	–
CCCCCCCCCCCC(=O)N[C@@H](CCC(=O)NCCOCCOCC(=O)NCCOCCOCC(=O)NCCCC[C@H](NC(=O)[C@H](C)NC(=O)[C@@H](NC(=O)[C@H](Cc1ccccc1)NC(=O)[C@H](CCC(=O)O)NC(=O)[C@](C)(CCCCN)NC(=O)[C@H](C)NC(=O)[C@H](C)NC(=O)[C@H](CCC(=O)O)NC(=O)CNC(=O)[C@H](CCC(=O)O)NC(=O)[C@H](CC(C)C)NC(=O)[C@H](Cc1ccc(O)cc1)NC(=O)[C@H](CO)NC(=O)[C@H](CO)NC(=O)[C@H](CCCCNC(=O)COCCOCCNC(=O)COCCOCCNC(=O)CC[C@H](NC(=O)CCCCCCCCCCC)C(=O)O)NC(=O)[C@H](CC(=O)O)NC(=O)[C@H](CO)NC(=O)[C@@H](NC(=O)[C@](C)(Cc1ccccc1)NC(=O)[C@H](CO)NC(=O)CNC(=O)[C@H](CCC(=O)O)NC(=O)C(C)(C)NC(=O)[C@@H](N)Cc1c[nH]cn1)[C@@H](C)O)[C@@H](C)CC)C(=O)N[C@H](C(=O)N[C@H](C(=O)N[C@@H](CCC(=O)O)C(=O)NCC(=O)NCC(N)=O)C(C)C)C(C)C)C(=O)O [compound 257] (H-H[Aib]EGS[αMeF]TSDK([AEEA-AEEA-γGlu-Lauroyl])SSYLEGEAA[αMeK]EFIAK([AEEA-AEEA-γGlu-Lauroyl])VVEGG-NH2)	–	–	–	–	–	–	–	8.4	4.36	12.4	577	812	342
CCCCCCCCCCCCCC(=O)N[C@@H](CCC(=O)NCCOCCOCC(=O)NCCOCCOCC(=O)NCCCC[C@H](NC(=O)[C@H](C)NC(=O)[C@@H](NC(=O)[C@](C)(Cc1ccccc1)NC(=O)[C@H](CCC(=O)O)NC(=O)[C@](C)(CCCCN)NC(=O)[C@H](C)NC(=O)[C@H](C)NC(=O)[C@H](CCC(=O)O)NC(=O)CNC(=O)[C@H](CCC(=O)O)NC(=O)[C@H](CC(C)C)NC(=O)[C@H](CCCCNC(=O)COCCOCCNC(=O)COCCOCCNC(=O)CC[C@H](NC(=O)CCCCCCCCCCCCC)C(=O)O)NC(=O)[C@H](CO)NC(=O)[C@](C)(CO)NC(=O)[C@@H](NC(=O)[C@H](CC(=O)O)NC(=O)[C@H](CO)NC(=O)[C@@H](NC(=O)[C@](C)(Cc1ccccc1)NC(=O)[C@H](CO)NC(=O)CNC(=O)[C@H](CCC(=O)O)NC(=O)C(C)(C)NC(=O)[C@@H](N)Cc1c[nH]cn1)[C@@H](C)O)C(C)C)[C@@H](C)CC)C(=O)N[C@H](C(=O)N[C@H](C(=O)N[C@@H](CCC(=O)O)C(=O)NCC(=O)NCC(N)=O)C(C)C)C(C)C)C(=O)O [compound 408] (H-H[Aib]EGS[αMeF]TSDV[αMeS]SK([AEEA-AEEA-γGlu-Myristoyl])LEGEAA[αMeK]E[αMeF]IAK([AEEA-AEEA-γGlu-Myristoyl])VVEGG-NH2)	–	–	–	–	–	–	–	8.9	9.96	7.89	412	376	448
